Tested on: Acinetobacter baumannii (Ab23)
Experiment: MIC shift assay of antibiotics (broth microdilution)
Format: cell-based
Conditions: compound concentration 2 μM; fold shift of colistin MIC; nc = no changeover or no shift
Description: Minimum inhibitory concentration (MIC) shift assays were performed to determine if the test compounds could alter the MIC of existing antibacterial drugs (e.g., ciprofloxacin and colistin) for E. coli, Acinetobacter baumannii, Klebsiella pneumoniae, Pseudomonas aeruginosa, and Enterobacter cloacae. The MIC shift assay is based on the standard broth microdilution MIC determination protocol of Wiegand et al, Nat Protoc. 3(2):163-75 (2008), with slight modifications that allow for the screening of up to seven test compounds in a single plate.
On the day before an assay, bacteria were grown overnight in cation-adjusted Mueller Hinton broth (CAMHB; Teknova, Hollister, Calif.) at 37° C. in an orbital shaker and sub-cultured at a 1:200 dilution the following morning. The cells were grown to OD600=0.5 to 0.8 and then diluted to OD600=0.01. From a serial dilution of each antibiotic at (50 μL of 2× concentrated stock solutions) several concentrations were added to the wells of a sterile, transparent round-bottom 96-well plate (Phenix Research Products, Candler, N.C.), and diluted cells (50 μL) were added to the plates for a starting OD600 of 0.005. […] A row of wells lacking test compound but containing the antibiotic was used to determine the MIC of that antibiotic alone. A column of wells lacking both antibiotic and test compound served as a growth control, and an additional column containing only CAMHB was included as a sterile blank control.
The plates were incubated for 18 to 20 h at 37° C. in an orbital shaker, and the cell density (OD600) was determined the following day in a microplate reader (PolarStar Optima, BMG Labtech). The MIC shift was determined by comparing the MIC of the antibiotic alone to the MIC of the antibiotic plus test compound.

Compound | colistin MIC shift, Ab23 at (compd concentration)
Cc1cccc2c(NCCCN(C)C)nc(-c3cc(-c4ccncc4)cc(C(F)(F)F)c3)nc12 [compound 336] | 8-16x

Same assay, conditions: compound concentration 4 μM; fold shift of colistin MIC; nc = no changeover or no shift

Compound | colistin MIC shift, Ab23 at (compd concentration)
3,3′-(propane-2,2-diyl)bis(5,6-dichloro-1H-indole) [compound 461] | 64x
CCN(CC)CCCC(C)Nc1nc(/C=C/c2ccc3ccccc3c2)nc2cc(Cl)ccc12 (racemic) [compound 305] | 4x
CCN(CC)CCCC(C)Nc1nc(/C=C/c2ccc(Cl)c(Cl)c2)nc2c(C(F)(F)F)cccc12 (racemic) [compound 312] | 16x
CCN(CC)CCCC(C)Nc1nc(/C=C/c2ccc(Cl)c(Cl)c2)nc2c([N+](=O)[O-])cccc12 (racemic) [compound 314] | 8x
CCN(CC)CCCC(C)Nc1nc(/C=C/c2ccc(Cl)c(Cl)c2)nc2cc(C(F)(F)F)ccc12 (racemic) [compound 315] | 4-8x
CCN(CC)CCCC(C)Nc1nc(/C=C/c2ccc(Cl)c(Cl)c2)nc2c(Br)cccc12 (racemic) [compound 316] | 2-8x
CCN(CC)CCCC(C)Nc1nc(/C=C/c2ccc(Cl)c(Cl)c2)nc2ccc(Cl)cc12 (racemic) [compound 317] | 2x
CCN(CC)CCCC(C)Nc1nc(/C=C/c2ccc(Cl)c(Cl)c2)nc2ccc(Br)cc12 (racemic) [compound 318] | 2x
CCN(CC)CCCC(C)Nc1nc(/C=C/c2ccc(Cl)c(Cl)c2)nc2c(F)cccc12 (racemic) [compound 319] | 2x
CCN(CC)CCCC(C)Nc1nc(/C=C/c2ccc(Cl)c(Cl)c2)nc2c(Cl)cccc12 (racemic) [compound 320] | 2x
CCN(CC)CCCC(C)Nc1nc(/C=C/c2ccc(Cl)c(Cl)c2)nc2cc(Cl)ccc12 (racemic) [compound 325] | 4x
CCN(CC)CCCC(C)Nc1nc(-c2cn(Cc3ccccc3)c3c(Cl)cccc23)nc2c(F)cccc12 (racemic) [compound 564] | 4x
CCN(CC)CCCC(C)Nc1nc(-c2cn(Cc3ccccc3)c3c(Cl)cccc23)nc2c(Cl)cccc12 (racemic) [compound 566] | 8x
CCN(CC)CCCC(C)Nc1nc(-c2cn(Cc3ccccc3)c3c(Cl)cccc23)nc2c(Br)cccc12 (racemic) [compound 568] | 4x
CCN(CC)CCCC(C)Nc1nc(-c2cn(Cc3ccc(C)cc3)c3c(Cl)cccc23)nc2c(C)cccc12 (racemic) [compound 572] | 4x
CCN(CC)CCCC(C)Nc1nc(-c2cn(Cc3ccc(Cl)cc3)c3c(Cl)cccc23)nc2c(C)cccc12 (racemic) [compound 576] | 8x
CCN(CC)CCCC(C)Nc1nc(-c2cn(Cc3cccc(Cl)c3)c3c(Cl)cccc23)nc2c(C)cccc12 (racemic) [compound 578] | 16x
CCNCCCC(C)Nc1nc(-c2cn(Cc3ccccc3)c3c(Cl)cccc23)nc2c(C)cccc12 (racemic) [compound 581] | 4x
CCN(CC)CCCC(C)Nc1nc(-c2cn(Cc3ccccc3)c3c(Cl)cccc23)nc2cc(Cl)ccc12 (racemic) [compound 584] | 8x
COc1ccc2c(NCCCN(C)C)nc(/C=C/c3ccc(Cl)c(Cl)c3)nc2c1C [335a] | 8x
CN(C)CCOC(=O)n1cc(-c2ccc(Cl)c(Cl)c2)c2cc(Cl)ccc21 [362a] | 8x
CCC(N)C(=O)n1cc(/C=C/c2ccc(Cl)c(Cl)c2)c2cc(Br)ccc21 (centres unmarked) [362d] | 32x

Compound | colistin MIC shift, Ab23 at (compd concentration)
CN(C)CC(=O)n1cc(/C=C/c2ccc(Cl)c(Cl)c2)c2cc(Br)ccc21 [362e] | 32x
CCC(N)C(=O)n1cc(-c2ccc(Cl)c(Cl)c2)c2cc(Cl)ccc21 (centres unmarked) [362f] | 64x
CN1CCN(CC(=O)n2cc(-c3ccc(Cl)c(Cl)c3)c3cc(Cl)ccc32)CC1 [362g] | 16x
Cc1cccc2c(NCCCN)nc(-c3cccc(-c4cc(C(F)(F)F)ccc4F)c3)nc12 [491a] | 128x
Cc1cccc2c(NCCCN)nc(-c3cc(Br)cc(C(F)(F)F)c3)nc12 [524a] | 128x
Cc1cccc2c(NCCCN(C)C)nc(-c3cc(-c4ccccn4)cc(C(F)(F)F)c3)nc12 [524b] | 16x
Cc1cccc2c(NCCCN(C)C)nc(-c3cc(-c4cncnc4)cc(C(F)(F)F)c3)nc12 [524c] | 2x
Cc1c(-c2ccccc2)ccc2c(NCCCN(C)C)nc(-c3cc(Br)cc(C(F)(F)F)c3)nc12 [524d] | 16-32x
Cc1c(-c2ccccc2)ccc2c(NCCCN(C)C)nc(-c3cc(-c4ccccc4)cc(C(F)(F)F)c3)nc12 [524e] | 4x
Cc1cccc2c(NCCN(C)C)nc(-c3cc(-c4ccccc4)cc(C(F)(F)F)c3)nc12 [524f] | 32x
Cc1cc(Br)cc2c(NCCCN(C)C)nc(-c3cc(Br)cc(C(F)(F)F)c3)nc12 [524g] | 16x
Cc1cccc2c(NCCCN)nc(-c3cc(-c4ccccc4)cc(C(F)(F)F)c3)nc12 [524i] | 128x
Cc1cccc2c(NCCCN)nc(-c3cc(-c4ccccc4Cl)cc(C(F)(F)F)c3)nc12 [524m] | 128x
CN(C)CCCNc1nc(/C=C/c2ccc(Cl)c(Cl)c2)nc2c([N+](=O)[O-])cccc12 [compound 302] | 16x
CCN(CC)CCCC(C)Nc1nc(/C=C/c2ccc(Cl)c(Cl)c2)nc2c(C)cccc12 (centres unmarked) [compound 313] | 8x
CN(C)CCCN(C)c1nc(/C=C/c2ccc(Cl)c(Cl)c2)nc2cc(Cl)c(Cl)cc12 [compound 327] | 8-16x
CN(C)CCCNc1nc(/C=C/c2ccc(F)c(Cl)c2)nc2c(C(F)(F)F)cccc12 [compound 329] | 8x
CN(C)CCCNc1nc(/C=C/c2ccc(F)c(F)c2)nc2c(C(F)(F)F)cccc12 [compound 330] | 2x
CN(C)CCCNc1nc(/C=C/c2cc(C(F)(F)F)c(C(F)(F)F)cc2C(F)(F)F)nc2c(C(F)(F)F)cccc12 [compound 331] | 16x
CN(C)CCCNc1nc(/C=C/c2ccc(F)c(C(F)(F)F)c2)nc2c(C(F)(F)F)cccc12 [compound 332] | 16x
CN(C)CCCNc1nc(/C=C/c2cc(Cl)ccc2Cl)nc2c(C(F)(F)F)cccc12 [compound 335] | 16x

Same assay, conditions: compound concentration 8 μM; fold shift of colistin MIC; nc = no changeover or no shift

Compound | colistin MIC shift, Ab23 at (compd concentration)
CCN(CC)CCCC(C)Nc1nc(/C=C/c2cccc(Br)c2)nc2cc(Cl)ccc12 (racemic) [compound 306] | 4x
CCN(CC)CCCC(C)Nc1nc(/C=C/c2ccc(C(F)(F)F)cc2)nc2cc(Cl)ccc12 (racemic) [compound 307] | 4x
CN(C)CCCn1nc(-c2ccc(Cl)c(Cl)c2)c2ccc(C(F)(F)F)cc21 [559a] | 8x
CN(C)CC(=O)n1nc(-c2ccc(Cl)c(Cl)c2)c2ccc(C(F)(F)F)cc21 [559b] | 8x
CN(C)CCn1nc(-c2ccc(Cl)c(Cl)c2)c2ccc(C(F)(F)F)cc21 [559c] | 2x
CN(C)CCCNc1nc(/C=C/c2ccc(Br)cc2)nc2cc(Cl)ccc12 [compound 301] | 8x

Same assay, conditions: compound concentration 10 μM; fold shift of colistin MIC; nc = no changeover or no shift

Compound | colistin MIC shift, Ab23 at (compd concentration)
CCN(CC)CCCC(C)Nc1nc(/C=C/c2ccc(C(=O)OC)cc2)nc2cc(Cl)ccc12 (racemic) [compound 309] | 4x
CCN(CC)CCCC(C)Nc1nc(/C=C/c2ccc(Cl)cc2)nc2cc(Cl)ccc12 (racemic) [compound 310] | 8x
CCN(CC)CCCC(C)Nc1nc(/C=C/c2ccc(Cl)c(Cl)c2)nc2cc(F)c(F)cc12 (racemic) [compound 321] | 8x
CCN(CC)CCCC(C)Nc1nc(-c2cn(Cc3ccccc3)c3c(Cl)cccc23)nc2ccccc12 (racemic) [compound 562] | 8x
CCN(CC)CCCC(C)Nc1nc(-c2cn(Cc3ccccc3)c3c(Cl)cccc23)nc2c(-c3ccncc3)cccc12 (racemic) [compound 570] | 2x
CCN(CC)CCCC(C)Nc1nc(-c2cn(Cc3cccc(C)c3)c3c(Cl)cccc23)nc2c(C)cccc12 (racemic) [compound 574] | 8x

Source: patent publication US20160168140A1, “HETEROCYCLIC COMPOUNDS AS ANTIBIOTIC POTENTIATORS” (priority 2014, published 2016)
